Experimental data reported in patent US20240409585A1, “MACROCYCLIC IMMUNOMODULATORS” (priority 2021, published 2024).
Bridge positions count the residues as written; N and C are the ends. Square brackets hold non-standard residues; d marks the D form. Peptide text beside a SMILES is read from it. * marks the point of attachment. ξ: configuration not given here. Phe(4-(4-F-Ph)) = N[C@@H](Cc1ccc(-c2ccc(F)cc2)cc1)C(=O)O; Phe(4-CONH2) = NC(=O)c1ccc(C[C@H](N)C(=O)O)cc1; Phe(4-CH2NH2) = NCc1ccc(C[C@H](N)C(=O)O)cc1; Bip = N[C@@H](Cc1ccc(-c2ccccc2)cc1)C(=O)O; Phe(3-Me) = Cc1cccc(C[C@H](N)C(=O)O)c1; Val(3-OH) = CC(C)(O)[C@H](N)C(=O)O; Cha = N[C@@H](CC1CCCCC1)C(=O)O; Ile(3ξ) = CCC(C)[C@H](N)C(=O)O; Thr(3ξ) = CC(O)[C@H](N)C(=O)O; Carboxymethyl = O=C(O)C*; NMeA = CN[C@@H](C)C(=O)O; Dab = NCC[C@H](N)C(=O)O; Dap = NC[C@H](N)C(=O)O

Target: T1, PE-labeled human PD-L1-Ig binding to Jurkat cell line over-expressing human PD-1 (Jurkat-PD-1) (Homo sapiens, UniProt Q15116)
T1 construct: expressed in transfected cells; host or cells: Jurkat
Assay: Jurkat-PD-1 Cell Binding High-Content Screening Assay (CBA): Method 1
Settings: Jurkat-hPD-1 cells, PE-labeled PD-L1-Ig 20 nM final; read-out: Jurkat HPDL1 PD1 IC50 (uM) (Method 1)

T1 sequence (Q15116 25-288): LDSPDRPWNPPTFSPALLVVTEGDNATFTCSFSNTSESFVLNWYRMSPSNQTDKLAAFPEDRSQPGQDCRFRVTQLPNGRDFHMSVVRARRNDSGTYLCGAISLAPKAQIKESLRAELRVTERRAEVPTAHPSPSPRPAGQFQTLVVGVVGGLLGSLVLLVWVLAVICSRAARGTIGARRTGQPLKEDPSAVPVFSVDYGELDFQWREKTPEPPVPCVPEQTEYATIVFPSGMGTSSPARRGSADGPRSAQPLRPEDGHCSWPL

| Compound | IC50 [µM] |
| --- | --- |
| CC[C@H](C)[C@@H]1NC(=O)[C@H](Cc2ccc(-c3ccccc3)cc2)NC(=O)[C@H](C(C)(C)O)NC(=O)[C@H](Cc2cccc(C)c2)NC(=O)[C@H](CC(=O)O)NC(=O)[C@H](Cc2ccc(O)cc2)NC(=O)[C@H](CC(N)=O)NC(=O)CSC[C@@H](C(=O)N[C@@H](CCN)C(N)=O)NC(=O)[C@H]([C@@H](C)O)NC(=O)[C@H](C(C)C)NC(=O)[C@H](CC2CCCCC2)NC(=O)[C@H](CCN)NC(=O)[C@@H](CC(C)C)NC(=O)[C@H](C)N(C)C1=O [Compound 1691] ({CH2CO}-NYD[Phe(3-Me)][Val(3-OH)][Bip]I[NMeA][dL][Dab][Cha]VTC[Dab]-NH2; thioether N-14) | 0.02 |
| CCC(C)[C@@H]1NC(=O)[C@H](Cc2ccc(-c3ccccc3)cc2)NC(=O)[C@H](C(C)C)NC(=O)[C@H](Cc2c[nH]c3ccccc23)NC(=O)[C@H](CC(=O)O)NC(=O)[C@H](Cc2ccc(O)cc2)NC(=O)[C@H](Cc2ccc(CN)cc2)NC(=O)CSC[C@@H](C(=O)N[C@@H](C)C(N)=O)NC(=O)[C@H](C(C)O)NC(=O)[C@H](C(C)C)NC(=O)[C@H](CC2CCCCC2)NC(=O)[C@H](CCN)NC(=O)[C@@H](CC(C)C)NC(=O)[C@H](C)N(C)C1=O (stereo partly drawn) [Compound 2062] ({CH2CO}-[Phe(4-CH2NH2)]YDWV[Bip][Ile(3ξ)][NMeA][dL][Dab][Cha]V[Thr(3ξ)]CA-NH2; thioether N-14) | 0.02 |
| CC(C)C[C@@H]1NC(=O)[C@H](Cc2c[nH]c3ccccc23)NC(=O)[C@H](CC(=O)O)NC(=O)[C@H](Cc2ccc(O)cc2)NC(=O)[C@H](Cc2ccccc2)NC(=O)CSC[C@@H](C(=O)N[C@@H](C)C(N)=O)NC(=O)[C@H](CO)NC(=O)[C@H](C(C)C)NC(=O)[C@H](CC(C)C)NC(=O)[C@H](CC(N)=O)NC(=O)[C@@H](C)NC(=O)[C@H](C)N(C)C(=O)[C@H](C(C)C)NC(=O)[C@H](Cc2ccc(-c3ccccc3)cc2)NC1=O [Compound 1727] ({CH2CO}-FYDWL[Bip]V[NMeA][dA]NLVSCA-NH2; thioether N-14) | 0.01 |
| Cc1cccc(C[C@@H]2NC(=O)[C@H](CC(=O)O)NC(=O)[C@H](Cc3ccc(OCC(=O)O)cc3)NC(=O)[C@H](CN)NC(=O)CSC[C@@H](C(=O)N[C@@H](C)C(N)=O)NC(=O)[C@H]([C@@H](C)O)NC(=O)[C@H](C(C)C)NC(=O)[C@H](CC(C)C)NC(=O)[C@H](CCN)NC(=O)[C@@H](CC(C)C)NC(=O)[C@H](C)N(C)C(=O)[C@H](CCCNC(=N)N)NC(=O)[C@H](Cc3ccc(-c4ccccc4)cc3)NC(=O)[C@H](C(C)C)NC2=O)c1 [Compound 1456] ({CH2CO}-[Dap]Y(Carboxymethyl)D[Phe(3-Me)]V[Bip]R[NMeA][dL][Dab]LVTCA-NH2; thioether N-14) | 0.04 |
| CC(C)C[C@@H]1NC(=O)[C@H](CCCNC(=N)N)NC(=O)[C@@H](CC(C)C)NC(=O)[C@H](C)N(C)C(=O)[C@H](CCCNC(=N)N)NC(=O)[C@H](Cc2ccc(-c3ccccc3)cc2)NC(=O)[C@H](C(C)C)NC(=O)[C@H](Cc2c[nH]c3ccccc23)NC(=O)[C@H](CC(=O)O)NC(=O)[C@H](Cc2ccc(C(N)=O)cc2)NC(=O)[C@H](Cc2ccccc2)NC(=O)CSC[C@@H](C(=O)N[C@@H](C)C(N)=O)NC(=O)[C@H]([C@@H](C)O)NC(=O)[C@H](C(C)C)NC1=O [Compound 1099] ({CH2CO}-F[Phe(4-CONH2)]DWV[Bip]R[NMeA][dL]RLVTCA-NH2; thioether N-14) | 0.03 |
| CC(C)C[C@@H]1NC(=O)[C@H](CCN)NC(=O)[C@@H](CC(C)C)NC(=O)[C@H](C)N(C)C(=O)[C@H](CCCNC(=N)N)NC(=O)[C@H](Cc2ccc(-c3ccc(F)cc3)cc2)NC(=O)[C@H](C(C)C)NC(=O)[C@H](Cc2c[nH]c3ccccc23)NC(=O)[C@H](CC(=O)O)NC(=O)[C@H](Cc2ccc(O)cc2)NC(=O)[C@H](CC(N)=O)NC(=O)CSC[C@@H](C(=O)N[C@@H](C)C(N)=O)NC(=O)[C@H]([C@@H](C)O)NC(=O)[C@H](C(C)C)NC1=O [Compound 1229] ({CH2CO}-NYDWV[Phe(4-(4-F-Ph))]R[NMeA][dL][Dab]LVTCA-NH2; thioether N-14) | 0.13 |
